From US20170151215A1, “USE OF ROTIGOTINE FOR TREATING THE RESTLESS LEG SYNDROME” (UCB PHARMA GMBH, priority 2002, published 2017)

Key:
[1] = system: Restless Leg Syndrome (RLS); conditions: cited from earlier work; for effectiveness in RLS / side effects: short-term therapy studies; for side effects: usually in the beginning and as a function of the dosage
[2] = system: patients suffering from moderate to very severe idiopathic Restless Leg Syndrome; assay: placebo-controlled, double-blind, randomized clinical test of rotigotine TTS in Restless Leg Syndrome patients; assay type: in vivo, human; conditions: for Reduction of the average IRLSSG Value as compared to Placebo Treatment by Day 8: 8 days treatment
Excerpt: The rotigotine TTS produced per one of the above implementation examples was investigated in placebo-controlled, double-blind, randomized clinical tests at several centers, covering in a study with triple-branched parallel groups 63 patients who were suffering from moderate to very severe idiopathic Restless Leg Syndrome conditions.
The average age of the patients was 58.3 years. Randomization in the three treatment groups in terms of gender, age and severity of prior illnesses was reasonably balanced.
Over a treatment period of eight (8) days the patients of one group were treated with 5 cm^2 TTS and the patients of another group were treated with 10 cm^2 TTS. For a comparison the patients in the placebo group were treated with a placebo TTS. Within 24 hours, each of the above-mentioned drug-containing TTS's released 2.25 mg and, respectively, 4.5 mg rotigotine to the patient concerned.
As a result of the prespecified primary effectiveness the activities of daily life and the motoricity had changed, based on the generally accepted rating scale of the International Restless Leg Syndrome Study Group (IRLSSG), from the initial value to that in the concluding treatment evaluation (8th day).
On the basis of 10 questions, the IRLSSG measures and rates the following clinical parameters in Restless Leg patients:
The overall IRLSSG rating is derived from the individual values as follows:
First, an initial starting value is determined for each patient participating in the study. This is done by adding up the individual IRLSSG parameter values as of Day 0, i.e. before the treatment. Over the course of the treatment the IRLSSG values are compared with the starting value and any changes from that starting value are recorded. Finally, the average improvement of the IRLSSG value as of Day 8 over the starting value is determined by calculating the average of all test subjects. The resulting value is called CAS—(complete analysis set) randomized average change from the starting value of the overall IRLSSG rating.
Patients suffering from the Restless Leg Syndrome have been known to display a relatively strong response to placebos, meaning that even when treated with placebos these Restless Leg Syndrome patients show a certain improvement of their IRLSSG values. It is therefore important to compare any effect of the drug treatment with the degree of the IRLSSG improvement obtained through placebo treatment over the same time period. Thus, the final assessment of the improvement takes into account the effect of a placebo treatment during the same time period.

For N[C@@H](Cc1ccc(O)c(O)c1)C(=O)O [L-DOPA, levodopa], the “effect on the disorder (RLS)” value ([1]; long-term therapy) is listed as “clear mitigation of the disorder”.
With CCCN(CCc1cccs1)[C@H]1CCc2c(O)cccc2C1 [Rotigotine, (-)-5,6,7,8-tetrahydro-6-[propyl [2-(2-thienyl)ethyl]amino]-1-naphtol] the “Reduction of the average IRLSSG Value as compared to Placebo Treatment by Day 8” value ([2]; 5 cm^2 TTS, 2.25 mg rotigotine per 24 hours, p (one side) 0.09) was 3.6, the “Reduction of the average IRLSSG Value as compared to Placebo Treatment by Day 8” value ([2]; 10 cm^2 TTS, 4.5 mg rotigotine per 24 hours, p (one side) 0.04) was 6.3 and the “skin reactions at the point of application” value ([2]; administered via the TTS) was “generally very minor”. For the same molecule, the tolerability ([2]; administered via the TTS) was “generally well tolerated”, the tolerability ([2]; administered via the TTS, listed as rotigotine) was “well tolerated and safe” and the “subjective symptoms (tingling, cramps and pain in the legs, restlessness during the night, difficulties falling or remaining asleep)” value ([2]; end of the 8-day treatment, both patient groups (5 cm^2 and 10 cm^2 TTS)) was “either disappeared or diminished to a tolerable minimum”. For the same molecule, the “daytime weariness, nausea, dizziness, vomiting, insomnia caused by the treatment” value ([2]; patient reports, as a function of the dose administered) was “did not or only to a very minimal extent cause” and the “clinical improvement in patients in a moderate to severe stage of Restless Leg Syndrome” value ([2]; transdermally administered once daily) was “distinct clinical improvement”.
In the case of CC(C)C[C@H]1C(=O)N2CCC[C@H]2[C@]2(O)O[C@](NC(=O)[C@@H]3C[C@@H]4c5cccc6[nH]cc(c56)C[C@H]4N(C)C3)(C(C)C)C(=O)N12 [alpha dihydroergocryptine], the “effectiveness in RLS” value [1] is given as “effective” and the side effects [1] is given as “nausea, vomiting, dizziness, hypotension, constipation or insomnia”.
In the case of CC(C)C[C@H]1C(=O)N2CCC[C@H]2[C@]2(O)O[C@](NC(=O)[C@@H]3C=C4c5cccc6[nH]c(Br)c(c56)C[C@H]4N(C)C3)(C(C)C)C(=O)N12 [bromocriptine], the side effects [1] is listed as “nausea, vomiting, dizziness, hypotension, constipation or insomnia”.
For C=CCN1C[C@H](C(=O)N(CCCN(C)C)C(=O)NCC)C[C@@H]2c3cccc4[nH]cc(c34)C[C@H]21 [cabergolin], the “effectiveness in RLS” value [1] is listed as “effective” and the side effects [1] is listed as “nausea, vomiting, dizziness, hypotension, constipation or insomnia”.
In the case of Clc1cccc(Cl)c1NC1=NCCN1 [clonidine, 2-(2,6-dichloroanilino)-4,5-dihydroimidazol], the “frequency of waking up” value ([1]; treatment of RLS) is given as “no effect”, the “periodic leg movement during sleep (PLMS)” value ([1]; treatment of RLS) is given as “no effect” and the quality of sleep ([1]; treatment of RLS) is given as “no effect”. The soporiferous latency ([1]; treatment of RLS) was “reduced”.
For CCN(CC)C(=O)N[C@H]1C=C2c3cccc4[nH]cc(c34)C[C@H]2N(C)C1 [lisuride], the “effectiveness in RLS” value [1] is listed as “effective” and the side effects [1] is listed as “nausea, vomiting, dizziness, hypotension, constipation or insomnia”.
In the case of CCCN1C[C@H](CSC)C[C@@H]2c3cccc4[nH]cc(c34)C[C@H]21 [pergolide], the “effectiveness in RLS” value [1] is listed as “effective” and the side effects [1] is listed as “nausea, vomiting, dizziness, hypotension, constipation or insomnia”.
In the case of CCCN[C@H]1CCc2nc(N)sc2C1 [pramipexol], the serious side effect ([1]; in vivo) is listed as “Attacks of drowsiness”, the “effectiveness in RLS” value [1] is listed as “effective” and the side effects [1] is listed as “nausea, vomiting, dizziness, hypotension, constipation or insomnia”.
For CCCN(CCC)CCc1cccc2c1CC(=O)N2 [ropinirol], the “effectiveness in RLS” value [1] is given as “effective” and the side effects [1] is given as “nausea, vomiting, dizziness, hypotension, constipation or insomnia”.
